Measured values as given in patent US12016834B2, “Small molecule inhibitors of SLC25A1” (GEORGETOWN UNIVERSITY, priority 2017, dated 2024).

Tests used:
MP1 cells [1] = assay: Viability (Crystal Violet) and drug interaction (R index); type: cell-based, human; conditions: single drug, 5 days, monolayer
Experimental: (§1) Cellular proliferation and cytotoxicity assays. […] The cells were then washed with 1×PBS and fixed with cold 100% methanol at−20° C. for 20 minutes. Methanol was washed off and the cells were stained with 0.5% crystal violet dissolved in 25% methanol and water at 4° C. for 20 minutes. The staining was washed off using deionized (DI) water and the plate was dried overnight. On the second day, 100 mM sodium citrate in 50% ethanol and 50% water was added to the wells and absorbance at 550 nm was measured and corrected with readings at 405 nm. In other experiments, cell viability was assessed by trypan blue exclusion and visual count of the live cells was performed.
(§2) Statistical methods for drug interactions. […] Sexp/Sobs=1.0 denotes an additive interaction, while >1.0 denotes a synergistic interaction. R index values approaching 2.0 are indicative of strong synergy.

MP3 cells = assay: as above; type: cell-based, human; conditions: single drug, 5 days, monolayer
Experimental: as §1, §2

MP2 cells [2] = assay: as above; type: cell-based, human; conditions: single drug, 5 days, monolayer
Experimental: as §1, §2

MP2 cells [3] = assay: Seahorse OCR and ATP in patient-derived cells; type: cell-based, human; conditions: monolayer, chronic treatment for several passages (FIG. 6B)
Experimental: (§3) Primary lung cancer cultures and GMSC. Surgical samples were minced and digested with dispase (50 U/ml) in DMEM media containing 5% serum for 1 hour. Pleural effusions were centrifuged, washed once in PBS, and then plated. All primary cultures were initially grown on 6-well plates pre-coated with 2% Geltrex (Life Technologies; Carlsbad, CA) and 1% Maxgel (Sigma Aldrich). Maxgel is a humanized matrix, native and non-denatured. The inclusion of Maxgel in the system enhanced the initial attachment of primary tumor cells, partially because Maxgel provides a more natural ECM conformational substrate. The day after plating, the media containing unattached cells was typically transferred to a fresh plate, in most of cases generating new attached cultures. The media (Stem Cell Media) is the DMEM/F12 (Thermo-Fisher #11320-033 basic media) supplemented with the following components: Insulin-Transferrin-Sodium selenite (ITS; 1:1000; Sigma #11884); glutamine (Thermo-Fisher) to 4 mM final concentration; sodium pyruvate (Thermo-Fisher) to 2 mM final concentration; rock inhibitor (Y-27632) 10 micrograms/mL; 2-5% Knock Out Serum Replacement (KNOSR, Thermo-Fisher #10828-028); 0.5% ALBUMAX-(Lipid enriched BSA; Thermo-Fisher #11020-021); N2 Supplement (Thermo-Fisher) 1:250; EGF (5 ng/ml; Peprotech); hFGF (20 ng/ml; Bechman); and IGF-1 (Peprotech; 10-20 ng/ml).
(§4) Seahorse extracellular flux analyzer experiments. Cells derived from spheres or monolayer cultures were dissociated and plated overnight at 12,000 cells/well in DMEM with 10% FBS, 5 mM glucose, 1 mM pyruvate, 2 mM glutamine.
(§5) For the mitochondrial stress test, the media was replaced with DMEM without FBS or bicarbonate, containing 5 mM glucose, 1 mM pyruvate, 2 mM glutamine and placed in a CO2 free incubator at 37° C. for 1 hour, and then transferred to the Xf96 extracellular flux analyzer (Agilent; Santa Clara, CA). The program consisted of 3 measurements of OCR/ECAR before the injection of each drug: oligomycin (0.5 μM final concentration), FCCP (2 μM) and rotenone/antimycin (0.5 μM of each). For the glycolysis stress test, cells were plated overnight as above, and the media was washed twice the following day with DMEM without FBS, bicarbonate, glucose, glutamine or pyruvate, and incubated in this media in a CO2 free incubator with/without drug treatments at 37° C. for 4 hours. There were 3 measurements of OCR/ECAR before each injection: glucose (10 mM final concentration), oligomycin (0.5 […] (50 mM). For the analysis of glutamine oxidation, the protocol was the same as the glucose stress test, but with glutamine being the only compound injected (final concentration 4 mM) and OCR/ECAR measured for 60 minutes. When spheres were analyzed, they were dissociated with StemPro® Accutase® (Thermo Scientific; Waltham, MA) and plated under the same conditions as above as for the monolayers the day before the assay (H1299 spheres), or in stem cell media (See Stem Cell Media) with the wells coated in 15 μL of 2% geltrex diluted in DMEM:F12 (Thermo Scientific). The results were normalized to cell number.

H1299 cells [4] = assay: Sphere forming / self-renewal assay; type: cell-based, human; conditions: for self-renewal: single-cell derived spheres, Rotenone 10 nM, Oligomycin 1 mM, metformin 3 mM (FIG. 3I)
Experimental: Growth of monolayers and sphere cultures. Tumor cell lines were grown as monolayers in complete Dulbecco's Modified Eagle's Media (DMEM, Gibco; supplemented with 10% fetal bovine serum and 1% of 5,000 units/mL of penicillin-streptomycin (pen-strep), Gibco). To generate spheroids, cells were grown in Falcon bacteriological petri dishes coated with 2% poly(2-hydroxyethyl methacrylate) dissolved in 100% ethanol. The growth media was DMEM/F12 (Gibco) supplemented with 20 ng/mL of epidermal growth factor (EGF), 5 ng/mL of fibroblast growth factor, 0.375% 100× N2 supplements (Gibco), and 1% pen-strep. Monolayer cells were dissociated using 0.25% trypsin-edta (Gibco), whereas spheroid cultures were dissociated using StemPro Accutase (Gibco). Patient derived cell lines were grown as described below in the primary lung cultures section.
Self-renewal assays. Tumor cells cultured as spheroids were dissociated and diluted in 2× sphere media containing 1% methyl cellulose, which was previously dissolved in cold DMEM/F12 media. Either 200, 500, or 1000 cells were then plated in each 96 well and were incubated in the presence or absence of drugs, as indicated. The spheres were allowed to form for a period of a week to ten days, at which point they were counted. Six biological replicates were used for quantification of the results.

H1299 cells [5] = assay: Proliferation / viability in monolayer (2D) cultures; type: cell-based, human; conditions: for anti-proliferative activity in 2D cultures: Rotenone 10 nM, Oligomycin 1 mM, metformin 3 mM (FIG. 3I)
Experimental: Cellular proliferation and cytotoxicity assays. The proliferative capacity of cells was assessed by plating cells in triplicate at a concentration of 2,000 to 10,000 cells/well in 96 well plates in triplicate, with or without drug treatment for 48 hours. The cells were then washed with 1×PBS and fixed with cold 100% methanol at−20° C. for 20 minutes. Methanol was washed off and the cells were stained with 0.5% crystal violet dissolved in 25% methanol and water at 4° C. for 20 minutes. The staining was washed off using deionized (DI) water and the plate was dried overnight. On the second day, 100 mM sodium citrate in 50% ethanol and 50% water was added to the wells and absorbance at 550 nm was measured and corrected with readings at 405 nm. In other experiments, cell viability was assessed by trypan blue exclusion and visual count of the live cells was performed.

SLC25A1 = SLC25A1 (Homo sapiens, UniProt P53007); assay: Surface plasmon resonance (SPR) binding to recombinant purified SLC25A1; conditions: steady state, 1:1 binding model; human protein
Chain of SLC25A1 (P53007 14-311): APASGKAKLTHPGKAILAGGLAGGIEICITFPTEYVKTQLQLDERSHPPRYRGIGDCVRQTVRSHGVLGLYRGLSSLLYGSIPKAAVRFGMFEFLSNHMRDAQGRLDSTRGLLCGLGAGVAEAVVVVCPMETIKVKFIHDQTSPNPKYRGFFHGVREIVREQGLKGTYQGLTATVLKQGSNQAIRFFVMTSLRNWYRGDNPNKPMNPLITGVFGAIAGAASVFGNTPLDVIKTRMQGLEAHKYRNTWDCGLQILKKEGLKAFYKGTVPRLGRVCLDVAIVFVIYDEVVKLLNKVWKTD
Experimental: Surface Plasmon Resonance (SPR). SPR experiments were performed on a Biacore 4000 instrument at room temperature. The NTA sensorchip surface was activated by injecting 0.5 mM NiCl2 for 1 minute. Histidine-tagged recombinant purified SLC25A1 protein (0.07 mg/ml stock concentration) was used as the ligand to capture on the sensor surface. SLC25A1 was dissolved (1:50 dilution) in PBS-P (20 mM phosphate buffer (pH 7.4), 2.7 mM KCl, 137 mM NaCl and 0.05% surfactant P20) buffer and captured onto spots 2 and 4. SLC25A1 was captured to a level of ˜3000. PBS-P was used as the capture running buffer. Small molecules were used as analytes to flow over the ligand immobilized surface. Spot 3 of all flow cells were used as reference. The calculated theoretical Rmax was ˜30 RU based on a 1:1 interaction. The kinetics experiments were performed in the presence of HBS-P (10 mM HEPES (pH7.4), 150 mM NaCl, and 0.05% surfactant P20). The flow rate of all the solutions was maintained at 30 μL/min. The analyte concentrations were 0 μM, […], 6.25 μM, 12.5 μM, 25 μM, 50 μM, and 100 μM. Analyte concentrations showing signs of aggregation were excluded from the analysis. Data were analyzed by Biacore BiaEvaluation software for 1:1 steady state binding model.

MP1 cells [6] = assay: Tumor xenograft in immuno-compromised mice; type: in vivo
Experimental: Mice and treatments. To produce tumor xenografts, 5×10^6 cells derived from either monolayer cultures or GMSC expanded spheres were dissociated with Accutase, resuspended in PBS, and injected subcutaneously in the flanks of female balb athymic mice. Once detectable tumors started to form, their sizes were measured with a caliper in three dimensions and mice were randomized in the different treatment groups. […] Cisplatin was administered at 26 mg/kg every three or four days. AZD9291 was administered at 25/mg/Kg every 3 days. Serial measurements were made every day after the identification of the initial tumor mass to determine growth curves in vivo. Tumor volume was calculated using the formula for a prolate spheroid: volume=[…], where a is the width and b is the length. All animals were sacrificed when the tumors exceeded 1.5 cm. At the completion of experiments, tumors were excised, weighed, and the statistical significances of differences in tumor volume were assessed. Animals were monitored once a week for the presence of signs of disease, particularly neurological disturbances or weight loss, and they were weighed periodically.
Statistics. For the animal studies, power calculations for each treatment group were first determined. The number of animals was calculated to detect a 50% difference at alpha=0.05 and power=0.8. Statistical significance was assessed using both unpaired, two-tailed Student t test, and analysis of variance (ANOVA). Significant differences are indicated using the standard […] scale (P<0.05, significant; P<0.01, highly significant; P<0.001, extremely significant).

MP1 cells [7] = assay: Seahorse OCR and ATP in patient-derived cells; type: cell-based, human; conditions: monolayer, chronic treatment for several passages (FIG. 6A)
Experimental: as §3, §4, §5

MP1 cells [8] = assay: Apoptosis by annexin V and PI flow cytometry; type: cell-based, human; conditions: drug alone
Experimental: Flow cytometry. Tumor cells were trypsinized and washed in 1×PBS. The cells were then stained with the antibodies of choice: CD166-PE (Biolegend), CD133-647 (Biolegend), or CD44 (Biolegend), in 1% BAS-PBS. The cell cycles of monolayers or spheres of the cells were analyzed by fixing the cells in cold 75% ethanol. The annexin V (Biolegend) and propidium iodide (Biolegend) experiments were carried out.

H1299 cells [9] = assay: Glycolysis: ECAR (Seahorse) and lactic acid levels; type: cell-based, human; conditions: sphere-grown CSCs (FIG. 11C)
Experimental: Cells, reagents, antibodies, primers. The H1299 cell lines and other cell lines employed in this study were obtained from ATCC or from the tissue culture core facility at LCCC. Cells were grown in Dulbecco's Modified Eagle's Medium (DMEM, 25 mM glucose, with glutamine and pyruvate from Invitrogen; Carlsbad, CA) and supplemented with 10% fetal calf serum (FCS). […] The SLC25A1 specific shRNA vectors were purchased from Sigma. The vector expressing human SLC25A1 untagged or Flag-Myc epitope tagged were from Origene; Rockville, MD (#SC120727 and RC200657, respectively). The anti-SLC25A1 antibody used in immuno-blot was from Santa Cruz Biotech, #sc-86392 employed at 1:1000 dilution. Citrate, lactate, and PFK measurements were performed by using commercially available kits (Biovision (Milpitas, CA)).
as §4, §5

C=CC(=O)Nc1cc(Nc2nccc(-c3cn(C)c4ccccc34)n2)c(OC)cc1N(C)CCN(C)C [AZD9291, osimertinib, reference compound]
response to drug (viability) (MP1 cells [1]): minimal response | response to drug (viability) (MP3 cells): complete insensitivity | response to drug (viability) (MP2 cells [2]): minimal response | mitochondrial respiration after chronic drug treatment (MP2 cells [3]): dramatic shift towards mitochondrial respiration

O=C(O)CCCCC(CCSCc1ccccc1)SCc1ccccc1 (centres unmarked) [CPI-613]
activity in spheres versus 2D/monolayer cultures (H1299 cells [4]; sphere forming assay compared with monolayer): more effective in sphere forming assays than in monolayer cultures | anti-proliferative activity, ranges of concentrations (H1299 cells [5]; monolayer or methylcellulose single cells (FIG. 3J)): anti-proliferative activity at comparable ranges of concentrations

O=C(O)c1ccc(Cl)c(S(=O)(=O)Nc2cccc([N+](=O)[O-])c2)c1 [CTPI-1]
growth inhibitory activity, range of concentrations (H1299 cells [4]; human cells (FIGS. 2A and 2E)): millimolar range of concentrations | sphere forming capacity (H1299 cells [4]; one week after treatment, BTA 2 mM, CTPI 1 mM (FIG. 9F)): reduced sphere forming capacity | Kd (SLC25A1): 63.6 µM

N.N.[Cl][Pt][Cl] [cisplatin, reference compound]
stem cell markers in tumors (immuno-blot) (MP1 cells [6]; GMSC-derived tumors (FIG. 7F)): enhanced | tumor growth, cisplatin alone (MP1 cells [6]; cisplatin 3 mg/Kg every three days (FIG. 7D)): inhibition of tumor growth but this effect was lost over time | time until most tumors restarted to grow (MP1 cells [6]; cisplatin alone): two | response to drug (viability) (MP1 cells [1]): minimal response | response to drug (viability) (MP2 cells [2]): minimal response | mitochondrial respiration after chronic drug treatment (MP1 cells [7]): dramatic shift towards mitochondrial respiration | apoptosis (MP1 cells [8]): did not induce apoptosis

CN(C)C(=N)N=C(N)N [metformin]
self-renewal (H1299 cells [4]): significantly reduced self-renewal | anti-proliferative activity in 2D cultures (H1299 cells [5]): no anti-proliferative activity | glycolytic rates (H1299 cells [9]): enhanced glycolytic rates

CC[C@H]1/C=C/C=C/C[C@@H](C)[C@H](O)[C@@](C)(O)C(=O)[C@@H](C)[C@H](O)[C@@H](C)C(=O)[C@@H](C)[C@H](O)[C@@H](C)/C=C/C(=O)O[C@@H]2[C@H](C)[C@H](CC1)O[C@]1(CC[C@H](C)[C@H](C[C@@H](C)O)O1)[C@H]2C [oligomycyn, oligomycin]
self-renewal (H1299 cells [4]): significantly reduced self-renewal | anti-proliferative activity in 2D cultures (H1299 cells [5]): no anti-proliferative activity

C=C(C)[C@H]1Cc2c(ccc3c2O[C@@H]2COc4cc(OC)c(OC)cc4[C@@H]2C3=O)O1 [rotenone]
self-renewal (H1299 cells [4]): significantly reduced self-renewal | anti-proliferative activity in 2D cultures (H1299 cells [5]): no anti-proliferative activity
